What was measured:
[1] = Molar enthalpy of transition or fusion; details: Crystal; DSC
[2] = Crystal; for vapor or sublimation pressure: Calculated from knudsen effusion weight loss
[3] = molar heat capacity at constant pressure; details: 101.33 kPa, Crystal, Small sample (50 mg) DSC

O=C(O)/C=C\c1ccccc1 [cis-cinnamic acid]
Details	Molar enthalpy of transition or fusion [kcal/mol]
[1]	4.02

Details	Normal melting temperature [°C]	molar heat capacity at constant pressure [J/K/mol]	vapor or sublimation pressure [kPa]
[2], 306.21 K	–	–	8.16e-05
[2], 308.18 K	–	–	0.0001123
[2], 310.2 K	–	–	0.0001346
[2], 312.15 K	–	–	0.0001819
[2], 314.14 K	–	–	0.0002297
[2], 316.16 K	–	–	0.0002837
[2], 318.1 K	–	–	0.0003808
[2], 320.19 K	–	–	0.0004592
[2], 322.05 K	–	–	0.000572
[2], 324.08 K	–	–	0.0007647
[2], 326.1 K	–	–	0.0009201
[2], DTA	67.0	–	–
[3], 257.15 K	–	155	–
[3], 258.15 K	–	155.9	–
[3], 259.15 K	–	156	–
[3], 260.15 K	–	156.5	–
[3], 261.15 K	–	156.9	–
[3], 262.15 K	–	157.5	–
[3], 263.15 K	–	158.1	–
[3], 264.15 K	–	158.7	–
[3], 265.15 K	–	159.1	–
[3], 266.15 K	–	159.7	–
[3], 267.15 K	–	160.2	–
[3], 268.15 K	–	160.8	–
[3], 269.15 K	–	161.2	–
[3], 270.15 K	–	161.6	–
[3], 271.15 K	–	162.2	–
[3], 272.15 K	–	163	–
[3], 273.15 K	–	163.3	–
[3], 274.15 K	–	163.9	–
[3], 275.15 K	–	164.3	–
[3], 276.15 K	–	165.3	–
[3], 277.15 K	–	165.8	–
[3], 278.15 K	–	166.2	–
[3], 279.15 K	–	166.7	–
[3], 280.15 K	–	167.3	–
[3], 281.15 K	–	167.9	–
[3], 282.15 K	–	168.5	–
[3], 283.15 K	–	169.1	–
[3], 284.15 K	–	169.5	–
[3], 285.15 K	–	170.4	–
[3], 286.15 K	–	170.8	–
[3], 287.15 K	–	171.4	–
[3], 288.15 K	–	171.9	–
[3], 289.15 K	–	172.6	–
[3], 290.15 K	–	173.2	–
[3], 291.15 K	–	173.9	–
[3], 292.15 K	–	174.5	–
[3], 293.15 K	–	175.1	–
[3], 294.15 K	–	175.9	–
[3], 295.15 K	–	176.5	–
[3], 296.15 K	–	176.9	–
[3], 297.15 K	–	177.6	–
[3], 298.15 K	–	178.1	–
[3], 299.15 K	–	178.7	–
[3], 300.15 K	–	179.1	–
[3], 301.15 K	–	179.9	–
[3], 302.15 K	–	180.6	–
[3], 303.15 K	–	181.3	–
[3], 304.15 K	–	182.1	–
[3], 305.15 K	–	183	–
[3], 306.15 K	–	183.7	–
[3], 307.15 K	–	184.6	–
[3], 308.15 K	–	185.3	–
[3], 309.15 K	–	185.9	–
[3], 310.15 K	–	186.8	–
[3], 311.15 K	–	187.9	–
[3], 312.15 K	–	188.6	–
[3], 313.15 K	–	189.3	–
[3], 314.15 K	–	190.2	–
[3], 315.15 K	–	191.3	–
[3], 316.15 K	–	192.3	–
[3], 317.15 K	–	193.5	–
[3], 318.15 K	–	194.5	–
[3], 319.15 K	–	195.9	–
[3], 320.15 K	–	197.5	–
[3], 321.15 K	–	199.1	–
[3], 322.15 K	–	201.1	–
